Values joined by “and” are separate entries in the source; they are usually repeats but may differ in a detail not shown here. Equal entries are not always repeated.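 Method: 48-hour compound exposure of cells in 96-well plates, five concentrations, linear interpolation of endpoints. GI50 = concentration required for 50% inhibition of growth. At the TGI there is no net growth.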
Legend:
Experiment in all cases: NCI tumour cell line growth inhibition, 48 h
NCI/ADR-RES ovarian = system: NCI/ADR-RES ovarian
RPMI-8226 leukemia = system: RPMI-8226 leukemia
NCI-H522 lung = system: NCI-H522 lung
SN12C renal = system: SN12C renal
SK-MEL-5 melanoma = system: SK-MEL-5 melanoma
NCI-H23 lung = system: NCI-H23 lung
A549 NSCLC = system: A549 NSCLC
SF-295 CNS = system: SF-295 CNS
SF-268 CNS = system: SF-268 CNS
KM12 colon = system: KM12 colon
OVCAR-4 ovarian = system: OVCAR-4 ovarian
BT-549 breast = system: BT-549 breast
A498 renal = system: A498 renal
MDA-MB-435 = system: MDA-MB-435
NCI-H460 lung = system: NCI-H460 lung
DU-145 prostate = system: DU-145 prostate
HS 578T breast = system: HS 578T breast
CCRF-CEM leukemia = system: CCRF-CEM leukemia
786-0 renal = system: 786-0 renal
TK-10 renal = system: TK-10 renal
T-47D breast = system: T-47D breast
NCI-H226 lung = system: NCI-H226 lung
UO-31 renal = system: UO-31 renal
SR leukemia = system: SR leukemia
SW-620 colon = system: SW-620 colon
RXF 393 renal = system: RXF 393 renal
U251 CNS = system: U251 CNS
HCT-15 colon = system: HCT-15 colon
HOP-92 NSCLC = system: HOP-92 NSCLC
SK-OV-3 ovarian = system: SK-OV-3 ovarian
MDA-N = system: MDA-N
OVCAR-8 ovarian = system: OVCAR-8 ovarian
SF-539 CNS = system: SF-539 CNS
CAKI-1 renal = system: CAKI-1 renal
EKVX NSCLC = system: EKVX NSCLC
ACHN renal = system: ACHN renal
LOX IMVI melanoma = system: LOX IMVI melanoma
HCT-116 colon = system: HCT-116 colon
IGROV1 ovarian = system: IGROV1 ovarian
M14 melanoma = system: M14 melanoma
MCF7 breast = system: MCF7 breast
SK-MEL-2 melanoma = system: SK-MEL-2 melanoma
OVCAR-3 ovarian = system: OVCAR-3 ovarian
K-562 leukemia = system: K-562 leukemia
OVCAR-5 ovarian = system: OVCAR-5 ovarian
HCC-2998 colon = system: HCC-2998 colon
HT29 colon = system: HT29 colon
UACC-257 melanoma = system: UACC-257 melanoma
HOP-62 NSCLC = system: HOP-62 NSCLC
HL-60(TB) leukemia = system: HL-60(TB) leukemia
MDA-MB-231 breast = system: MDA-MB-231 breast
COLO 205 colon = system: COLO 205 colon
MOLT-4 leukemia = system: MOLT-4 leukemia
SNB-75 CNS = system: SNB-75 CNS
SNB-19 CNS = system: SNB-19 CNS

COc1cc2c3c(c4cc(OC)c(OC)cc4c2cc1OC)CN1CCC[C@H]1C3
GI50 (NCI/ADR-RES ovarian): 111 nM and 37.9 nM | GI50 (RPMI-8226 leukemia): 90.6 nM and < 17.5 nM | TGI (RPMI-8226 leukemia): 435 nM and 2130 nM | TGI (NCI-H522 lung): 1010 nM and 540 nM | GI50 (SN12C renal): 42.9 nM and < 10.5 nM | TGI (SN12C renal): 1300 nM and 374 nM | GI50 (SK-MEL-5 melanoma): 60.7 nM and < 10 nM | GI50 (NCI-H23 lung): 40.6 nM and < 12.3 nM | TGI (NCI-H23 lung): 653 nM and 3400 nM | TGI (A549 NSCLC): 142 nM | GI50 (SF-295 CNS): 35.7 nM and 10 nM | GI50 (SF-268 CNS): 14.2 nM | GI50 (KM12 colon): 45.2 nM and < 10 nM | TGI (KM12 colon): 1220 nM | GI50 (OVCAR-4 ovarian): 41.9 nM and < 10 nM | TGI (OVCAR-4 ovarian): 1280 nM and 392 nM | TGI (BT-549 breast): 84.9 nM and 657 nM | TGI (A498 renal): 36.8 nM | GI50 (MDA-MB-435): 29.8 nM and < 14.7 nM | TGI (MDA-MB-435): 494 nM and 1290 nM | GI50 (NCI-H460 lung): 30 nM and < 10 nM | TGI (NCI-H460 lung): 1130 nM and 825 nM | GI50 (DU-145 prostate): 20.5 nM | TGI (DU-145 prostate): 187 nM | TGI (HS 578T breast): > 29200 nM | GI50 (CCRF-CEM leukemia): 52.4 nM and < 10.4 nM | TGI (CCRF-CEM leukemia): 977 nM and 4840 nM | GI50 (786-0 renal): 41.7 nM and 10.3 nM | TGI (786-0 renal): > 10000 nM and 2460 nM | TGI (TK-10 renal): 103 nM and 497 nM | GI50 (T-47D breast): 19.2 nM | TGI (T-47D breast): 330 nM | TGI (NCI-H226 lung): 1060 nM | TGI (UO-31 renal): 1660 nM and 1000 nM | GI50 (SR leukemia): 66.7 nM and 10.2 nM | GI50 (SW-620 colon): 73.4 nM and < 12.4 nM | GI50 (RXF 393 renal): 4.87 nM | TGI (RXF 393 renal): 93.1 nM | GI50 (U251 CNS): 22.1 nM and < 10 nM | TGI (U251 CNS): 331 nM | GI50 (HCT-15 colon): 46.3 nM and 11.1 nM | GI50 (HOP-92 NSCLC): 36.6 nM and < 10.5 nM | TGI (HOP-92 NSCLC): 1340 nM and 695 nM | TGI (SK-OV-3 ovarian): 172 nM | GI50 (MDA-N): 81.7 nM and < 12.9 nM | TGI (MDA-N): 6570 nM and 776 nM | GI50 (OVCAR-8 ovarian): 38.1 nM and < 10.3 nM | TGI (OVCAR-8 ovarian): > 34000 nM | GI50 (SF-539 CNS): 56.4 nM and 15.7 nM | TGI (SF-539 CNS): 2940 nM and 1120 nM | TGI (CAKI-1 renal): 481 nM and 926 nM | GI50 (EKVX NSCLC): 21.6 nM and < 10 nM | TGI (EKVX NSCLC): 285 nM and 284 nM | TGI (ACHN renal): 2370 nM and 393 nM | TGI (LOX IMVI melanoma): 245 nM and 1460 nM | TGI (HCT-116 colon): 1750 nM and 1040 nM | GI50 (IGROV1 ovarian): 43.3 nM and < 10 nM | TGI (IGROV1 ovarian): 1450 nM and 1420 nM | GI50 (M14 melanoma): 50.2 nM and < 14.2 nM | TGI (M14 melanoma): 2150 nM and 1210 nM | TGI (MCF7 breast): 127 nM and 318 nM | GI50 (SK-MEL-2 melanoma): 29.7 nM and < 10 nM | TGI (OVCAR-3 ovarian): 379 nM and 1150 nM | TGI (K-562 leukemia): > 10000 nM and 19300 nM | TGI (OVCAR-5 ovarian): 681 nM | GI50 (HCC-2998 colon): 35.6 nM and < 10 nM | TGI (HCC-2998 colon): 300 nM and 656 nM | GI50 (HT29 colon): 34 nM and < 10 nM | TGI (HT29 colon): 1140 nM | TGI (UACC-257 melanoma): 338 nM and 937 nM | GI50 (HOP-62 NSCLC): 40.9 nM and < 14.7 nM | TGI (HOP-62 NSCLC): 2850 nM | GI50 (HL-60(TB) leukemia): 85.3 nM and < 16.5 nM | TGI (MDA-MB-231 breast): 174 nM | GI50 (COLO 205 colon): 59.2 nM and < 10 nM | GI50 (MOLT-4 leukemia): 38.2 nM and < 10 nM | TGI (MOLT-4 leukemia): > 34900 nM | GI50 (SNB-75 CNS): 8.4 nM | TGI (SNB-75 CNS): 66.3 nM | TGI (SNB-19 CNS): 184 nM

— PubChem BioAssay (NCI)
